Experimental data from patent US5623050A, “Stable polypeptides having c-AMP production enhancing activity and the use thereof” (Takeda Chemical Industries, Ltd., priority 1991, dated 1997).

Assay: Oxidized product content by HPLC on storage
Format: physicochemical
Method: In order to clarify that the polypeptides of the present invention are not easily oxidized, oxidized product content (%) of Arg^17 -PACAP27 obtained in Example 1 below were assayed when stored both in lyophylization and in aqueous acetic acid. The assay of the oxidized product content (%) were conducted on High Performance Liquid Chromatography (HPLC). Conditions of HPLC are as follows:
Solution A 0.1% aqueous trifluoroacetic acid
Solution B acetonitrile containing 0.1% trifluoroacetic acid
A linear gradient elution from solution A to solution
Elution time of Arg^17 -PACAP27:19.9 min

CC[C@H](C)[C@H](NC(=O)CNC(=O)[C@H](CC(=O)O)NC(=O)[C@H](CO)NC(=O)[C@@H](N)Cc1c[nH]cn1)C(=O)N[C@@H](Cc1ccccc1)C(=O)N[C@H](C(=O)N[C@@H](CC(=O)O)C(=O)N[C@@H](CO)C(=O)N[C@@H](Cc1ccc(O)cc1)C(=O)N[C@@H](CO)C(=O)N[C@@H](CCCNC(=N)N)C(=O)N[C@@H](Cc1ccc(O)cc1)C(=O)N[C@@H](CCCNC(=N)N)C(=O)N[C@@H](CCCCN)C(=O)N[C@@H](CCC(N)=O)C(=O)N[C@@H](CCCNC(=N)N)C(=O)N[C@@H](C)C(=O)N[C@H](C(=O)N[C@@H](CCCCN)C(=O)N[C@@H](CCCCN)C(=O)N[C@@H](Cc1ccc(O)cc1)C(=O)N[C@@H](CC(C)C)C(=O)N[C@@H](C)C(=O)N[C@@H](C)C(=O)N[C@H](C(=O)N[C@@H](CC(C)C)C(N)=O)C(C)C)C(C)C)[C@@H](C)O [Arg^17 -PACAP27]
0%: Oxidized product (%) just after synthesizing (just after synthesizing) | Oxidized product (%) aqueous acetic acid (stored in aqueous acetic acid) | Oxidized product (%) lyophilization store (stored in lyophilization)
